Reference: publication PMC13447983, “Identifying and characterising a plant GH1 β‐glucosidase that exhibits hydrolytic activity on N‐linked glucopyranoside” (FEBS Open Bio, 2026)

Molecular target: T1, ZmGlu1 (Zea mays, UniProt P49235)
T1 construct: gene GLU1; E. coli BL21 Star (DE3)
Assay: HPLC of released methyl anthranilate at […] nm, Michaelis-Menten fit
Type: biochemical
Conditions: 50 mM phosphate pH 6.0, 35 °C, 3 μM enzyme, 1.17-20 mM substrate

T1 sequence (P49235 55-566): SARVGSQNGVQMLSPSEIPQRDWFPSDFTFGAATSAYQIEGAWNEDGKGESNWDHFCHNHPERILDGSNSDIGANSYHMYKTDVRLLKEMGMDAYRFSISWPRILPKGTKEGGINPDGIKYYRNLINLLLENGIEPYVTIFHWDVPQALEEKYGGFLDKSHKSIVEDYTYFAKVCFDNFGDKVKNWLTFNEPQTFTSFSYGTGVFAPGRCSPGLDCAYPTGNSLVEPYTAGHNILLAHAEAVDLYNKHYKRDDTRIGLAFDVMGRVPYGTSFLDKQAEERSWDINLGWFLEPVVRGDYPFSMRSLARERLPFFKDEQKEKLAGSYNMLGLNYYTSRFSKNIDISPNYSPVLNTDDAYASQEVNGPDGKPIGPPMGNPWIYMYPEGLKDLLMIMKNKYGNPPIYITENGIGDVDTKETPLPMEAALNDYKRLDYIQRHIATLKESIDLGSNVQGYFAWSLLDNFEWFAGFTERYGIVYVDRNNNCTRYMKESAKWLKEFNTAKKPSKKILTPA

`COC(=O)c1ccccc1N[C@@H]1O[C@H](CO)[C@@H](O)[C@H](O)[C@H]1O` [MANT‐N‐glucose, methyl anthranilate‐N‐β‐D‐glucopyranoside] gave a Km of 13.7 ± 1.22 mM.
